*1 amine or outer side, *2 acyl side, *3 side chain or, on linkers, in order; H or OH if unused. Where a SMILES comes first, the peptide text is derived from it. Side-chain parts run from the residue outwards. [ ]: non-standard residue; d: D form. The star is where a group is joined. C18 diacid = O=C(O)CCCCCCCCCCCCCCCCC(=O)*; C16 diacid = O=C(O)CCCCCCCCCCCCCCC(=O)*; γGlu = O=C(O)[C@H](CCC(=O)[*:2])N[*:1]; C14 diacid = O=C(O)CCCCCCCCCCCCC(=O)*; NMeI = CC[C@H](C)[C@H](NC)C(=O)O; αMeL = CC(C)C[C@](C)(N)C(=O)O; Ac6c = NC1(C(=O)O)CCCCC1; AEEA = NCCOCCOCC(=O)O; Aib = CC(C)(N)C(=O)O
Legend:
[1] = biological target: T1, CFR1R receptor (Homo sapiens, UniProt P34998); experiment: Activity at anti-target CFR1R receptor, cAMP assay in CRF1R-overexpression CHO-K1 cells; type: cell-based; conditions: 100% = Sauvagine at 100 nM; for EC50: cAMP
T1 construct: host or cells: CHO-K1 (clone 2)
T1 sequence (P34998 24-415): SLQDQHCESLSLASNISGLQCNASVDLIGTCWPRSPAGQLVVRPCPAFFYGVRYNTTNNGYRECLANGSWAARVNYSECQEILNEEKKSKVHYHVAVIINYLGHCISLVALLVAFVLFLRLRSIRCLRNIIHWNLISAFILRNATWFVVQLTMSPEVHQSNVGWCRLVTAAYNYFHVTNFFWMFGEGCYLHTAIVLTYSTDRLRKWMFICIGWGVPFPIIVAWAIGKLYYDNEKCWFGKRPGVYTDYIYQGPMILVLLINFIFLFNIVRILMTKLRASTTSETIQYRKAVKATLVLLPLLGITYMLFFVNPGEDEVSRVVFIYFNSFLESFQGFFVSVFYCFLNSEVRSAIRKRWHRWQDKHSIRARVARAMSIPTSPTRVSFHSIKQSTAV
Procedure, shortened: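 Grow clone 2 to near confluence at 37° C. under 5% CO2 in F12 (Hams) with 10% FBS and G418, harvest, and freeze in 10% DMSO. Thaw and plate at 4000 cells/well. Then proceed per the TeloHAEC method, normalising to Sauvagine 100 nM as maximum.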

[2] = biological target: T2, human CRF2a receptor (Homo sapiens, UniProt Q13324); experiment: Activity at human CRF2a receptor, cAMP functional assay in TeloHEAC cells; type: cell-based; conditions: TeloHEAC cells stably expressing human CRF2a receptor, relative to urocortin 2 (100 nM = 100%)
T2 construct: expressed in transfected cells; host or cells: TeloHEAC cells
T2 sequence (Q13324 1-411): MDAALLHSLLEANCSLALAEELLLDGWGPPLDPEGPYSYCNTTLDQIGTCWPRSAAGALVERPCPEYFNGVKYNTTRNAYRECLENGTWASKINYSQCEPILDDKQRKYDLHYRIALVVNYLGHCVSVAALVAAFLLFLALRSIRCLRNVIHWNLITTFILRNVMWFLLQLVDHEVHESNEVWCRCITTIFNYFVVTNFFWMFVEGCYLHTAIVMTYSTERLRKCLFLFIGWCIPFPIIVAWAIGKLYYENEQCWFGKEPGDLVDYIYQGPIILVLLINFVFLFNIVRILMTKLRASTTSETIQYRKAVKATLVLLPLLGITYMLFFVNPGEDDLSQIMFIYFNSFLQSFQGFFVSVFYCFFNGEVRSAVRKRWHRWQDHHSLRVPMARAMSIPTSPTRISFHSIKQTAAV
Procedure, shortened: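 TeloHEAC cells stably expressing human CRF2a (10000 cells/well, suspended in HBSS/20 mM HEPES with 2 mM IBMX) were exposed to compounds for 30 min at 37 °C. cAMP was read as the 665/620 nm fluorescence ratio after 1 h at room temperature. EC50 was derived relative to 100 nM urocortin 2, set as 100%.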

Row | Structure (SMILES) | Emax (% I) [1] [% I] | EC50 [1] [nM] | EC50 [2] [nM]
1 | CC[C@H](C)[C@H](NC)C(=O)N[C@H](C(=O)N[C@@H](CC(C)C)C(=O)N[C@@H](CO)C(=O)N[C@@H](CC(C)C)C(=O)N[C@@H](CC(=O)O)C(=O)N[C@@H](C(=O)N1CCC[C@H]1C(=O)N[C@H](C(=O)N[C@@H](CCCCN)C(=O)N[C@@H](CC(C)C)C(=O)N[C@@H](CCCCNC(=O)COCCOCCNC(=O)COCCOCCNC(=O)CC[C@H](NC(=O)CCCCCCCCCCCCC(=O)O)C(=O)O)C(=O)N[C@@H](CCCCN)C(=O)N[C@H](C(=O)N[C@@H](CC(C)C)C(=O)N[C@@H](CC(C)C)C(=O)N[C@@H](CCC(=O)O)C(=O)N[C@@H](CCC(N)=O)C(=O)N[C@@H](CCC(=O)O)C(=O)N[C@@H](CCCCN)C(=O)N[C@@H](CCC(N)=O)C(=O)N[C@@H](CCCCN)C(=O)N[C@@H](CCCCN)C(=O)N[C@@H](CCC(N)=O)C(=O)N[C@@H](CCCNC(=N)N)C(=O)N[C@@H](CCC(=O)O)C(=O)N[C@@H](CCC(N)=O)C(=O)N[C@@H](C)C(=O)N[C@@H](CCC(=O)O)C(=O)N[C@H](C(=O)N[C@@H](CC(N)=O)C(=O)NC(C)(C)C(=O)N[C@@H](CCC(N)=O)C(=O)N[C@H](C(=O)N[C@@H](CC(C)C)C(=O)N[C@@H](C)C(=O)N[C@@H](CCC(N)=O)C(=O)N[C@H](C(N)=O)C(C)C)[C@@H](C)CC)[C@@H](C)O)[C@@H](C)CC)[C@@H](C)CC)C(C)C)C(C)C [compound 178] (H-[NMeI]VLSLD[dV]PIKLK([AEEA-AEEA-γGlu-C14 diacid])KILLEQEKQKKQREQAETN[Aib]QILAQV-NH2) | 1 | > 250 | 6.5
2 | CC[C@H](C)[C@H](NC(C)=O)C(=O)N[C@H](C(=O)N[C@@H](CC(C)C)C(=O)N[C@@H](CO)C(=O)N[C@@H](CC(C)C)C(=O)N[C@@H](CC(=O)O)C(=O)N[C@@H](C(=O)N1CCC[C@H]1C(=O)N[C@H](C(=O)N[C@@H](CCCCN)C(=O)N[C@@H](CC(C)C)C(=O)N[C@@H](CCCCNC(=O)CC[C@H](NC(=O)CCCCCCCCCCCCCCCCC(=O)O)C(=O)O)C(=O)N[C@@H](CCCCN)C(=O)N[C@H](C(=O)N[C@@H](CC(C)C)C(=O)N[C@@H](CC(C)C)C(=O)N[C@@H](CCC(=O)O)C(=O)N[C@@H](CCC(N)=O)C(=O)N[C@@H](CCC(=O)O)C(=O)N[C@@H](CCCCN)C(=O)N[C@@H](CCC(N)=O)C(=O)N[C@@H](CCCCN)C(=O)N[C@@H](CCCCN)C(=O)N[C@@H](CCC(N)=O)C(=O)N[C@@H](CCCNC(=N)N)C(=O)N[C@@H](CCC(=O)O)C(=O)N[C@@H](CCC(N)=O)C(=O)N[C@@H](C)C(=O)N[C@@H](CCC(=O)O)C(=O)N[C@H](C(=O)N[C@@H](CC(N)=O)C(=O)NC1(C(=O)N[C@@H](CCC(N)=O)C(=O)N[C@H](C(=O)N[C@@H](CC(C)C)C(=O)N[C@@H](C)C(=O)N[C@@H](CCC(N)=O)C(=O)N[C@H](C(N)=O)C(C)C)[C@@H](C)CC)CCCCC1)[C@@H](C)O)[C@@H](C)CC)[C@@H](C)CC)C(C)C)C(C)C [compound 134] (Ac-IVLSLD[dV]PIKLK([γGlu-C18 diacid])KILLEQEKQKKQREQAETN[Ac6c]QILAQV-NH2) | 10 | > 250 | 0.5
3 | CC[C@H](C)[C@H](NC)C(=O)N[C@H](C(=O)N[C@@H](CC(C)C)C(=O)N[C@@H](CO)C(=O)N[C@@H](CC(C)C)C(=O)N[C@@H](CC(=O)O)C(=O)N[C@@H](C(=O)N1CCC[C@H]1C(=O)N[C@H](C(=O)N[C@@H](CCCCN)C(=O)N[C@@H](CC(C)C)C(=O)N[C@@H](CCCCNC(=O)CC[C@H](NC(=O)CCCCCCCCCCCCCCCCC(=O)O)C(=O)O)C(=O)N[C@@H](CCC(N)=O)C(=O)N[C@H](C(=O)N[C@@H](CC(C)C)C(=O)N[C@@H](CC(C)C)C(=O)N[C@@H](CCCCN)C(=O)N[C@@H](CCC(N)=O)C(=O)N[C@@H](CCC(=O)O)C(=O)N[C@@H](CCCNC(=N)N)C(=O)N[C@@H](CCC(N)=O)C(=O)N[C@@H](CCCCN)C(=O)N[C@@H](CCCCN)C(=O)N[C@@H](CCC(N)=O)C(=O)N[C@@H](CCCNC(=N)N)C(=O)N[C@@H](CCC(=O)O)C(=O)N[C@@H](CCC(N)=O)C(=O)N[C@@H](C)C(=O)N[C@@H](CCC(=O)O)C(=O)N[C@@H](CCCCN)C(=O)N[C@@H](CC(N)=O)C(=O)NC(C)(C)C(=O)N[C@@H](CCC(N)=O)C(=O)N[C@H](C(=O)N[C@@H](CC(C)C)C(=O)N[C@@H](CCC(=O)O)C(=O)N[C@@H](CCC(N)=O)C(=O)N[C@H](C(N)=O)C(C)C)[C@@H](C)CC)[C@@H](C)CC)[C@@H](C)CC)C(C)C)C(C)C [compound 23] (H-[NMeI]VLSLD[dV]PIKLK([γGlu-C18 diacid])QILLKQERQKKQREQAEKN[Aib]QILEQV-NH2) | 35 | > 250 | 0.33
4 | CC[C@H](C)[C@H](NC(C)=O)C(=O)N[C@H](C(=O)N[C@@H](CC(C)C)C(=O)N[C@@H](CO)C(=O)N[C@@H](CC(C)C)C(=O)N[C@@H](CC(=O)O)C(=O)N[C@@H](C(=O)N1CCC[C@H]1C(=O)N[C@H](C(=O)N[C@@H](CCCCN)C(=O)N[C@@](C)(CC(C)C)C(=O)N[C@@H](CCCCNC(=O)CC[C@H](NC(=O)CCCCCCCCCCCCCCC(=O)O)C(=O)O)C(=O)N[C@@H](CCCCN)C(=O)N[C@H](C(=O)N[C@@H](CC(C)C)C(=O)N[C@@H](CC(C)C)C(=O)N[C@@H](CCC(=O)O)C(=O)N[C@@H](CCC(N)=O)C(=O)N[C@@H](CCC(=O)O)C(=O)N[C@@H](CCCCN)C(=O)N[C@@H](CCC(N)=O)C(=O)N[C@@H](CCCCN)C(=O)N[C@@H](CCCCN)C(=O)N[C@@H](CCC(N)=O)C(=O)N[C@@H](CCCNC(=N)N)C(=O)N[C@@H](CCC(=O)O)C(=O)N[C@@H](CCC(N)=O)C(=O)N[C@@H](C)C(=O)N[C@@H](CCC(=O)O)C(=O)N[C@H](C(=O)N[C@@H](CC(N)=O)C(=O)NC(C)(C)C(=O)N[C@@H](CCC(N)=O)C(=O)N[C@H](C(=O)N[C@@H](CC(C)C)C(=O)N[C@@H](C)C(=O)N[C@@H](CCC(N)=O)C(=O)N[C@H](C(N)=O)C(C)C)[C@@H](C)CC)[C@@H](C)O)[C@@H](C)CC)[C@@H](C)CC)C(C)C)C(C)C [compound 44] (Ac-IVLSLD[dV]PIK[αMeL]K([γGlu-C16 diacid])KILLEQEKQKKQREQAETN[Aib]QILAQV-NH2) | 5 | > 250 | 0.25
5 | CC[C@H](C)[C@H](N)C(=O)N[C@H](C(=O)N[C@@H](CC(C)C)C(=O)N[C@@H](CO)C(=O)N[C@@H](CC(C)C)C(=O)N[C@@H](CC(=O)O)C(=O)N[C@@H](C(=O)N1CCC[C@H]1C(=O)N[C@H](C(=O)N[C@@H](CCCCN)C(=O)N[C@@H](CC(C)C)C(=O)N[C@@H](CCCCNC(=O)COCCOCCNC(=O)COCCOCCNC(=O)CC[C@H](NC(=O)CCCCCCCCCCCCCCCCC(=O)O)C(=O)O)C(=O)N[C@@H](CCC(N)=O)C(=O)N[C@H](C(=O)N[C@@H](CC(C)C)C(=O)N[C@@H](CC(C)C)C(=O)N[C@@H](CCCCN)C(=O)N[C@@H](CCC(N)=O)C(=O)N[C@@H](CCC(=O)O)C(=O)N[C@@H](CCCNC(=N)N)C(=O)N[C@@H](CCC(N)=O)C(=O)N[C@@H](CCCCN)C(=O)N[C@@H](CCCCN)C(=O)N[C@@H](CCC(N)=O)C(=O)N[C@@H](CCCNC(=N)N)C(=O)N[C@@H](CCC(=O)O)C(=O)N[C@@H](CCC(N)=O)C(=O)N[C@@H](C)C(=O)N[C@@H](CCC(=O)O)C(=O)N[C@@H](CCCCN)C(=O)N[C@@H](CC(N)=O)C(=O)N[C@@H](CCCCN)C(=O)N[C@@H](CCC(N)=O)C(=O)N[C@H](C(=O)N[C@@H](CC(C)C)C(=O)N[C@@H](CCC(=O)O)C(=O)N[C@@H](CCC(N)=O)C(=O)N[C@H](C(N)=O)C(C)C)[C@@H](C)CC)[C@@H](C)CC)[C@@H](C)CC)C(C)C)C(C)C [compound 150] (H-IVLSLD[dV]PIKLK([AEEA-AEEA-γGlu-C18 diacid])QILLKQERQKKQREQAEKNKQILEQV-NH2) | 38 | > 250 | 0.25

From patent US20260001928A1 (CORTERIA PHARMACEUTICALS, priority 2022, published 2026)
